From the NIST ThermoML archive (doi:10.1021/je100256w)

Assay: cn = amount concentration of the nth substance listed, in mol/dm3
Conditions: 101 kPa, Liquid, Dip Cell

CCCCCCCCCCCCCCCC[N+](C)(C)CCCCCC[N+](C)(C)CCCCCCCCCCCCCCCC.[Br-].[Br-] + O
electrical conductivity [S/m]
Conditions | 298 K | 303 K | 308 K | 313 K
c1 = 3.3e-06 | 7.1e-08 | 7.2e-08 | 7.3e-08 | 7.5e-08
c1 = 6.6e-06 | 1.31e-07 | 1.53e-07 | 1.22e-07 | 1.33e-07
c1 = 9.9e-06 | 2.04e-07 | 2.14e-07 | 2.09e-07 | 1.92e-07
c1 = 1.32e-05 | 2.59e-07 | 2.69e-07 | 2.84e-07 | 2.42e-07
c1 = 1.64e-05 | 3.27e-07 | 3.46e-07 | 3.66e-07 | 3.21e-07
c1 = 1.96e-05 | 3.99e-07 | 4.09e-07 | 4.21e-07 | 3.95e-07
c1 = 2.28e-05 | 4.86e-07 | 5.06e-07 | 5.18e-07 | 4.69e-07
c1 = 2.6e-05 | 5.26e-07 | 5.46e-07 | 5.67e-07 | 5.41e-07
c1 = 2.91e-05 | 6.16e-07 | 6.36e-07 | 6.57e-07 | 6.23e-07
c1 = 3.23e-05 | 6.92e-07 | 7.02e-07 | 7.22e-07 | 6.81e-07
c1 = 3.54e-05 | 7.86e-07 | 8.06e-07 | 8.22e-07 | 7.7e-07
c1 = 3.85e-05 | 8.34e-07 | 8.54e-07 | 8.91e-07 | 8.38e-07
c1 = 4.15e-05 | 9.29e-07 | 9.49e-07 | 9.65e-07 | 9.01e-07
c1 = 4.46e-05 | 9.65e-07 | 9.95e-07 | 1.042e-06 | 9.69e-07
c1 = 4.76e-05 | 1.031e-06 | 1.031e-06 | 1.071e-06 | 1.041e-06
c1 = 5.06e-05 | 1.084e-06 | 1.084e-06 | 1.113e-06 | 1.113e-06
c1 = 5.36e-05 | 1.145e-06 | 1.145e-06 | 1.17e-06 | 1.18e-06
c1 = 5.66e-05 | 1.186e-06 | 1.206e-06 | 1.226e-06 | 1.246e-06
c1 = 5.96e-05 | 1.209e-06 | 1.249e-06 | 1.269e-06 | 1.299e-06
c1 = 6.25e-05 | 1.272e-06 | 1.292e-06 | 1.312e-06 | 1.352e-06
c1 = 6.54e-05 | 1.326e-06 | 1.356e-06 | 1.376e-06 | 1.396e-06
c1 = 6.83e-05 | 1.359e-06 | 1.379e-06 | 1.399e-06 | 1.447e-06
c1 = 7.12e-05 | 1.396e-06 | 1.416e-06 | 1.456e-06 | 1.486e-06
c1 = 7.41e-05 | 1.437e-06 | 1.457e-06 | 1.477e-06 | 1.541e-06
c1 = 7.69e-05 | 1.462e-06 | 1.482e-06 | 1.512e-06 | 1.59e-06
